Laboratory results taken from patent US20030194373A1, “Angiogenesis targeting molecules” (priority 1998, published 2003).

Tests used:
angiogenesis = conditions: compared with fumagillin; cited from earlier work
αvβ3 receptor = target: T1, αvβ3 receptor (Homo sapiens, UniProt P05106+P06756); test: Cell adhesion assay with HUVECs and vitronectin; format: cell-based; conditions: HUVECs, FIG. 5
T1 construct: The HUVECs are known to express KDR, Flt-1 and αvβ3 receptors; host or cells: HUVEC
Protocol: HUVECs (BioWhittaker) were cultured on gelatin-coated plates in MCDB 131 media supplemented with 15% fetal bovine serum (FBS), 4 ng/ml basic fibroblast growth factor, 10 ng/ml epidermal growth factor, and 10 U/ml heparin; cells were used in experiments at passages 2-10. The HUVECs are known to express KDR, Flt-1 and αvβ3 receptors.
HUVECs were harvested using 15 mM EDTA pH8.0, washed 3 times, and resuspended in serum-free media. 4×10^4 cells were preincubated either alone (control) or with test compound for 15 minutes at 37° C., then incubated in 96 well plates coated with known integrin ligand—eg. 5 μg/ml vitronectin (Sigma Aldrich Canada, Oakville, ON) coated 3 hours., 37° C., or RGD-ECM precoated plates (Chemicon International, Temecula, Calif.)—and blocked with 1% bovine serum albumin (BSA). Cells were allowed to adhere for 1-2 hours at 37° C. Unbound cells were removed by washing with phosphate-buffered saline (PBS) and the remaining adherent cells were fixed with 2% paraformaldehyde (30 minutes, room temperature). Adhesion was quantitated by cell staining with crystal violet followed by dye extraction with 10% acetic acid. The absorbance was measured at 595 nm in a microplate reader (Bio-Rad Laboratories, Richmond, Calif.). The sequence RGDS was used as a positive control, and RGES was used as a negative control. […]

Flt-1 = Flt-1 (Homo sapiens, UniProt P17948); conditions: Flt-1 receptor; read-out: binding affinity to VEGF (Flt-1); cited from earlier work
Flt-1, sequence (P17948 27-1338, species assumed): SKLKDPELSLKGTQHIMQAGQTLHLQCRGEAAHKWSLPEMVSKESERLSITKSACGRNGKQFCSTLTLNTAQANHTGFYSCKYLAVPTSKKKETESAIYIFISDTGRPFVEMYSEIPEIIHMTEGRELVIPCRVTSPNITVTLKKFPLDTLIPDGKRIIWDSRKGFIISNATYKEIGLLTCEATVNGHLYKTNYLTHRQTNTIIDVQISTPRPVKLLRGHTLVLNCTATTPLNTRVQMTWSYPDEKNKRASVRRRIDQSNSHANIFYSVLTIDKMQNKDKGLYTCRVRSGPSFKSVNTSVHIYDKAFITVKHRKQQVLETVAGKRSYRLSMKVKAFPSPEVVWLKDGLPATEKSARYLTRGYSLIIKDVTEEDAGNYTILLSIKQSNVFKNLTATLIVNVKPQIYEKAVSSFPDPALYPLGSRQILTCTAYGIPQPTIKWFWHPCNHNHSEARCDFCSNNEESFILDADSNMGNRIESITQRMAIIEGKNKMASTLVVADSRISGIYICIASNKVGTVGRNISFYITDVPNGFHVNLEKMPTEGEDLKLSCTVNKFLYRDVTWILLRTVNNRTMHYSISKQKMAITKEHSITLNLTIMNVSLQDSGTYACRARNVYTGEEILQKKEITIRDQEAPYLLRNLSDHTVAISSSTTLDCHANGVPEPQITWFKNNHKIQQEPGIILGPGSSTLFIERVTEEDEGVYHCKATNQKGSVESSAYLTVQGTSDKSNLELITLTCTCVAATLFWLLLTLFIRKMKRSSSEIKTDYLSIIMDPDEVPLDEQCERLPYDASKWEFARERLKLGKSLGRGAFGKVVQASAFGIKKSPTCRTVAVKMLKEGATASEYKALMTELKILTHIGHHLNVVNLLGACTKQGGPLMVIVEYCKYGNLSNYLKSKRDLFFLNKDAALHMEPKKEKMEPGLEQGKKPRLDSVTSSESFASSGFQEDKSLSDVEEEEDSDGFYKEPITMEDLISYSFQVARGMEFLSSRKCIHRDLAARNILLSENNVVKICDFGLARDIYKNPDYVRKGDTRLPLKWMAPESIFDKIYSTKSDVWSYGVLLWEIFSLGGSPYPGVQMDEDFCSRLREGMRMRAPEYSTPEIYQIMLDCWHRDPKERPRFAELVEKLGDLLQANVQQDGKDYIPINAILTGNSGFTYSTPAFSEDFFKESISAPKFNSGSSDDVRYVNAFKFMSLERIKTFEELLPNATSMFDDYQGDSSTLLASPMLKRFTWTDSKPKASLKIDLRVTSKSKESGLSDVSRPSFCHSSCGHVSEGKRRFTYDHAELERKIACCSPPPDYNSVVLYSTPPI

KDR/Flk-1 = KDR/Flk-1 receptor; read-out: binding affinity to VEGF (KDR/Flk-1); cited from earlier work

T1 sequence (P06756 31-889 limits assumed): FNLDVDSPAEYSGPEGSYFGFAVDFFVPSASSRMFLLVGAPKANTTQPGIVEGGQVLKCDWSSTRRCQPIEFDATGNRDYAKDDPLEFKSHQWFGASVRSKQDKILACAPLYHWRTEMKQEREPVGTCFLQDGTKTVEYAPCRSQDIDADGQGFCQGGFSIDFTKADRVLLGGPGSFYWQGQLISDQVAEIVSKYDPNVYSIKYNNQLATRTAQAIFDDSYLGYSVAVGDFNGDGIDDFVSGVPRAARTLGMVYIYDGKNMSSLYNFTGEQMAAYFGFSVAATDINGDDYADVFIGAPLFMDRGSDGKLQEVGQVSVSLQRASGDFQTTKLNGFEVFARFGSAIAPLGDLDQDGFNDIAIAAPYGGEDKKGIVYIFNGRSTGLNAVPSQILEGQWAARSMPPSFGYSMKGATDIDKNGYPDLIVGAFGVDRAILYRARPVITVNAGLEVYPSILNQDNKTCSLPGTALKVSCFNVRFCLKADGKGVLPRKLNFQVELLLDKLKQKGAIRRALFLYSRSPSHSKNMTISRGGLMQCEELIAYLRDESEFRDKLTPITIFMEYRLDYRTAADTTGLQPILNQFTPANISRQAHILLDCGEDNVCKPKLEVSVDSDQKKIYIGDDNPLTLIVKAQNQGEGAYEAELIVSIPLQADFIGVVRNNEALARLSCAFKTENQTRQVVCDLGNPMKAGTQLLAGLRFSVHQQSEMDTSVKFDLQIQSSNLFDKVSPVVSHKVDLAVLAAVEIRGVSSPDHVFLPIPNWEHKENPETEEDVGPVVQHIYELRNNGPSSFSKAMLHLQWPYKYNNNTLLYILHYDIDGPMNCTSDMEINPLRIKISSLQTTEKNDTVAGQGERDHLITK
T1 sequence (P06756 891-1048 partner limits assumed): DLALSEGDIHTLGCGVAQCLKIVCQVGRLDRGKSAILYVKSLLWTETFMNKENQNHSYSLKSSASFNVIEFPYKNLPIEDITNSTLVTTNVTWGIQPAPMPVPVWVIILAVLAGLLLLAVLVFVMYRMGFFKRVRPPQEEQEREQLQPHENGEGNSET
T1 sequence (P05106 27-788): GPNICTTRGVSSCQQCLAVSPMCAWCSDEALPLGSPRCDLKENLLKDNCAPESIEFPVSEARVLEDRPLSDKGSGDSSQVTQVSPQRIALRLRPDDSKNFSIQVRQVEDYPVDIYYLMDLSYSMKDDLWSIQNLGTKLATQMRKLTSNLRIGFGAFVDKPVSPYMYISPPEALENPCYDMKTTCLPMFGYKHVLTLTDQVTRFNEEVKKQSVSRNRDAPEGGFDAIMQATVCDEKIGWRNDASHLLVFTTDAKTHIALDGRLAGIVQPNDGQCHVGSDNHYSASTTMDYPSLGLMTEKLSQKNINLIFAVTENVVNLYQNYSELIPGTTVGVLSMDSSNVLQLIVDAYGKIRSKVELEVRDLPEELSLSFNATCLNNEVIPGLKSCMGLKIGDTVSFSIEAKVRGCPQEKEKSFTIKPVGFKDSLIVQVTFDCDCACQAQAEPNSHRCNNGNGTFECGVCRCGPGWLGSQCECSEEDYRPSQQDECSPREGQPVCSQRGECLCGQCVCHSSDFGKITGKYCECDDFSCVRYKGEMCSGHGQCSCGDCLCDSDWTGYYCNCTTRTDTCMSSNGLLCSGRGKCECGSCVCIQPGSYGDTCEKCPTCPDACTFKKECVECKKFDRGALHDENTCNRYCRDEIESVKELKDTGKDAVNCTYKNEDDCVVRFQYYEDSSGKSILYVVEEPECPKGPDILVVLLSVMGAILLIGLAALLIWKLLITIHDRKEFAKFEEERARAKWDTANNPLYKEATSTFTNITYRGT

For `CO[C@@H]1C(=O)CC[C@]2(CO2)[C@@]1(O)[C@@]1(C)O[C@@H]1CC=C(C)C` [Ovalicin], the “potency as inhibitor of angiogenesis relative to fumagillin” value (angiogenesis) is given as 50 times.
For `CO[C@@H]1[C@H](OC(=O)NC(=O)CCl)CC[C@]2(CO2)[C@H]1[C@@]1(C)O[C@@H]1CC=C(C)C` [TNP-470, O-(chloroacetylcarbamoyl)fumagillol], the “potency as inhibitor of angiogenesis relative to fumagillin” value (angiogenesis) is given as 50 times.
In the case of R-G-D-S [RGDS, reference compound], the “effect on HUVEC binding to vitronectin / affinity for αvβ3 receptor” value (αvβ3 receptor; vitronectin coated plate) is reported as “eliminated the binding” and the inhibition of binding (αvβ3 receptor; vitronectin) is reported as 100%.
In the case of VEGF, the Kd (Flt-1) is listed as 0.025 nM and the Kd (KDR/Flk-1) is listed as 0.125 nM.
